Source: patent US20210261636A1, “NEOANTIGENS EXPRESSED IN MULTIPLE MYELOMA AND THEIR USES” (Janssen Biotech, Inc., priority 2020, published 2021)

How the values were obtained:
CD4+ T cells = test: Exogenous autologous healthy donor restimulation assay, TNFα and IFNγ production by CD4+ T cells; assay type: cell-based, human; design: Frequency (TNFα+ IFNγ+ CD4 T cells): unit not given here; conditions: donor independent, peptide pool 10 μg/mL, healthy donors; for Fold change (CD4+) vs. DMSO: maximum CD4+ T-cell response (TNFα and IFNγ); for Frequency (TNFα+ IFNγ+ CD4 T cells): maximum CD4+ T-cell response
Protocol: (§1) Immunogenicity responses were measured by estimating TNFα IFNγ double positive cells in the CD4+ and/or CD8+ T-cell populations. A response is considered positive if TNFα IFNγ double positive fraction was greater than or equal to three-fold over unstimulated cells (DMSO negative control) with a minimum frequency >=0.01%. […]
(§2) Overlapping 15-mer peptides were designed to span each indicated neoantigen. Their ability to activate T cells was assessed using known methods, such as the assay defnied as exogenous autologous normal donor restimulation assay. The peptides were used as pools using TNFα and IFNγ production by CD8^+ and CD4^+ T cells as a readout. Maximum frequency of CD8^+TNFα^+IFNγ^+ and CD4^+TNFα^+IFNγ^+ T cells and maximum fold change over background for each pool of peptides were analyzed, which were calculated as the highest frequency of CD8^+ TNFα^+IFNγ^+ and CD4^+ TNFα^+IFNγ^+ T cells and resulting fold change across the normal donors evaluated for the peptide.
(§3) CD1c+Dendritic Cells (CD1c+DC) isolated from human healthy PBMCs were thawed using media (IMDM (Gibco) supplemented with glutamine, HEPES, 5% human serum (Sigma), and 1× Pen-Strep). DC cells were resuspended in media supplemented with IL-4 (Peprotech, 20 ng/mL) and GM-CSF (Gibco, 20 ng/mL), plated in 6 well microplates, and rested overnight at 37° C. and 5% CO2 incubator. The following day, DC cells were counted and plated in a 96 well round bottom microplate at a concentration of 30,000 viable cells per well. Lyophilized neoantigen peptide pools (15-mer peptides with 8-mer overlapping peptide sequences) were solubilized in 100% DMSO with a stock concentration of 20 mg/mL Neoantigen peptides pools were added to DCs for a final concentration of 10 μg/mL and rested for 2 hours at 37° C. and 5% CO2 incubator. CEF Peptide Pool “Plus” (Cellular Technologies, Ltd.) was utilized as a positive control (each viral peptide at a final concentration of 4 ug/ml) and DMSO at the same final concentration (0.05%) as the experimental peptides was utilized as a negative control. After 2 hours, DC cells were irradiated with 50 gray of ionizing radiation. Autologous CD3+ Pan-T cells isolated from human normal PBMCs were thawed using media. Following irradiation, autologous Pan-T cells were added to the irradiated DCs at 300,000 viable cells per well. Human IL-15 (Peprotech) was added to all wells at final concentration of 10 ng/ml. Plates were incubated at 37° C. and 5% CO2 incubator for a total of 12 days. Media was refreshed every 2-3 days with IL-15 (R&D System, 10 ng/mL final concentration) and IL-2 (R&D systems, 10 IU/mL final concentration).
(§4) On Day 11, cells were re-stimulated with identical experimental peptide pools or controls, at same concentration as peptide stimulation on Day 1. Protein Inhibitor Cocktail (eBioscience) was added to every well and plate was incubated overnight for 14-16 hours at 37° C. and 5% CO2 incubator. On Day 12, cells were stained for surface and intracellular flow cytometry analysis. The cells were washed with PBS and stained with Live/Dead Fixable Aqua Dead Cell stain (Thermo-Fisher). Following the live/dead stain, cells were blocked using Biotin-Free Fc Receptor Blocker (Accurate Chemical & Scientific Corp). Extracellular cellular flow panel (1 μL/antibody per well in 50 μL) consisted of CD3 PerCP-Cy5.5 (Biolegend), CD4 BV421 (Biolegend), and CD8 APC-Cy7 (Biolegend). After extracellular staining, cells were fixed and permeabilized using Foxp3/Transcription Factor Staining Buffer Set (eBioscience) and stained for intracellular proteins (1:50 dilution) using TNFα FITC (R&D Systems) and IFNγ BV785 (Biolegend). Cells were washed and resuspended in stain buffer, analyzed, and recorded in a BD Celesta flow cytometer.
(§5) Flow cytometry analysis was conducted on FlowJo v10.6 software. Cells were gated on live, singlet, CD3+, CD4+ and CD8+ T cells. The CD8+ and CD4+ T cells were analyzed for TNFα and IFNγ expression. […]

CD8+ T cells = test: Exogenous autologous healthy donor restimulation assay, TNFα and IFNγ production by CD8+ T cells; assay type: cell-based, human; design: Frequency (TNFα+ IFNγ+ CD8 T cells): unit not given here; conditions: for Fold change (CD8+) vs. DMSO: maximum CD8+ T-cell response (TNFα and IFNγ); for Fold change (CD8+) vs. DMSO / Frequency (TNFα+ IFNγ+ CD8 T cells): donor independent, peptide pool 10 μg/mL, healthy donors; for Frequency (TNFα+ IFNγ+ CD8 T cells): maximum CD8+ T-cell response; for Immunogenic (yes/no): positive if CD8+ and/or CD4+ double positive TNFα/IFNγ frequency >=3-fold over DMSO and at least 0.01%
Protocol: as §1, §2, §3, §4, §5

Substance	Fold change (CD4+) vs. DMSO (CD4+ T cells)	Frequency (TNFα+ IFNγ+ CD4 T cells) (CD4+ T cells)	Fold change (CD8+) vs. DMSO (CD8+ T cells)	Frequency (TNFα+ IFNγ+ CD8 T cells) (CD8+ T cells)	Immunogenic (yes/no) (CD8+ T cells)
SRAPIKMSVLGQGHSRCLLHCLCLVAPMAFPVRLRVPCGG [AS16, alternative splicing, CAMSAP1]	15.062	0.011	8200	0.82	Yes
VHLDFSSAEMGFPHAAQANVELLGSSDLLT [AS116, alternative splicing, FCRL5]	6.32	0.076	192.71	1.42	Yes
KLLYEVSQKMVL [AS50, alternative splicing, PDZRN4]	8.29	0.041	3.032	0.038	Yes
WTRPEKQELNSSCCSLIL [AS120, alternative splicing, NCAM1]	3.71	0.018	13.03	0.24	Yes
FLQKHGNENTVLMLETLSEIRYGYVSCVCCPLLSPYGRCLN [AS26, alternative splicing, AGFG1]	5.7	0.097	84.36	0.75	Yes
MKQFLDFGECGPGPWAFLRGPGRGAAAAAPGRVGAGQLSPEAHPSSSAFPPPAP [AS10, alternative splicing, PDK1]	76.818	0.028	70.588	12	Yes
NAVRSYYETNGGMSFLRITP [FUS19, gene fusion CADPS2-> RNF148]	1.26	0.009	12.96	0.016	Yes
GNVLVRYVSLYVYYILLN [AS97, alternative splicing, ANKRD28]	96.12	0.57	13446.33	23.8	Yes
SLLSLFPGKTVEITCLQHQKC [AS3, alternative splicing, BBS9]	3.43	0.026	92.41	0.28	Yes
NASLHEVKDFFVPFPLPLLHLTSLKRNKLFN [AS110, alternative splicing, CCDC88A]	36.021	0.21	228.56	4.21	Yes
VAPSGLYYCG [FUS34, gene fusion CLN6-> CALML4]	8.33	0.015	8.7	0.013	Yes
FU524 (SGLEAIQRGYETFYSE)	3.13	0.014	259.11	0.48	Yes
VAPSQSRQEECWRHKMSW [AS42, alternative splicing, LARP1B]	3.83	0.025	40	0.076	Yes
GRAGQGGGMISVSQEFIK [FUS7, gene fusion FAM98A-> LOC105374454]	17.18	0.21	3.04	0.093	Yes
MEPTTKRGPGGTMVSAAAPS [FUS52, gene fusion SELPLG-> TMEM119]	6.831	0.02	46.95	2.09	Yes
MDLTAIYEDSAGPLSHA [FUS54, gene fusion ZFP36-> PLEKHG2]	9.66	0.063	15.176	2.58	Yes
AGDVLFIPGISLKVHKVQHSKVINICN [AS55, alternative splicing, TYW5]	27.71	0.042	96.05	0.17	Yes
GEVKWSVGSRTSLLL [FUS38, gene fusion CD79B-> GH1]	4.06	0.007	23.41	0.18	Yes
DPTTKRSRLTPKLHFLVERNPRWSQEQRKYL [AS92, alternative splicing, MSI2]	31.67	0.048	41.24	0.073	Yes
LQAILQPGNFILVNEI [AS5, alternative splicing, C3orf79]	19.14	0.14	4.64	0.068	Yes
AFIYHAFVGSTKTAWRTTL [FUS13, gene fusion KCNQ5-> KCNQ5-IT1]	8.79	0.057	3.96	0.033	Yes
SEMVAHERYVFEATGNDSFRTLCLLMK [AS112, alternative splicing, CFAP54]	7.92	0.012	35.03	0.062	Yes
IDPSSPLHTYYERITKGRNPERRYMKPERISPGHEAMEKNLEDNL [AS129, alternative splicing, TET1]	9.79	0.022	19.08	0.27	Yes
PPLITNVTEKPWKHTRIEMPLARLTRP [FUS51, gene fusion POU2AF1-> COLCA1]	11.93	0.061	200	0.06	Yes
LGRLEEAKVPLKMLLF [AS122, alternative splicing, OGT]	13.71	0.048	3.63	0.044	Yes
